Results taken from ChEMBL document CHEMBL3588750 (Medchemcomm, 2014).

Assays:
[1] = molecular target: Somatostatin receptor type 5 (Homo sapiens, UniProt P35346); assay: Inhibition of radiolabeled somatostatin-14 binding to human recombinant SSTR5
[2] = molecular target: Somatostatin receptor type 4 (Homo sapiens, UniProt P31391); assay: Inhibition of radiolabeled somatostatin-14 binding to human recombinant SSTR4
Chain of Somatostatin receptor type 4 (P31391 whole entry): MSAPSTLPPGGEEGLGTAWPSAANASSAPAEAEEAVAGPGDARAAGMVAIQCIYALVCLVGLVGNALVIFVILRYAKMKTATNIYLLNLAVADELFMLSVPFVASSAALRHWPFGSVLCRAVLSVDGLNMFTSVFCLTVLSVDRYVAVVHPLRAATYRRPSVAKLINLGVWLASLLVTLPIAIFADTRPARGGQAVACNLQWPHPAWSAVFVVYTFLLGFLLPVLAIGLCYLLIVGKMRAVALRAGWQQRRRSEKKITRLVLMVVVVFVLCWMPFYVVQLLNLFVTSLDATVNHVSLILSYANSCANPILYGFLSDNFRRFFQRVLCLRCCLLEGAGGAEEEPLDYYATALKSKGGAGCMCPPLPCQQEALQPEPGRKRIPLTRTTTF

Chain of Somatostatin receptor type 5 (P35346 whole entry): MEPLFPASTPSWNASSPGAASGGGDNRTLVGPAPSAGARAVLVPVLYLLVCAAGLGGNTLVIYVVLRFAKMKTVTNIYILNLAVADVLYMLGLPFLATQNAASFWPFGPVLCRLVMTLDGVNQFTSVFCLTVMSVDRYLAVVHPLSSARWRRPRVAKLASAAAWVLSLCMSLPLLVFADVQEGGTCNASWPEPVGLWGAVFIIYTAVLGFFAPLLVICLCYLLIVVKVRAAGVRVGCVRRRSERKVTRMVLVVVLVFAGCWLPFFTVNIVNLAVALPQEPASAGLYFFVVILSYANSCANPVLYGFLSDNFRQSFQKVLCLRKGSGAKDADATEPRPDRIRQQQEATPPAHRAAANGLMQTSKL

Ki ([2]; read-out: Ki) | Ki ([1]; read-out: Ki) | Ki [2] | Compound | Ki [1]
 | 34 µM | Not Active | NCCCCC[C@@H]1[C@@H](O)[C@H](O)[C@@H](O)CN1Cc1ccc2ccccc2c1 | 
5.4 µM | 7.7 µM |  | CC(=O)O[C@H]1[C@H](OC(C)=O)[C@@H](CCCCCN)N(Cc2ccc3ccccc3c2)C[C@@H]1OC(C)=O | 
1.9 µM | 2 µM |  | NCCCCC[C@@H]1[C@@H](OCc2ccccc2)[C@H](OCc2ccccc2)[C@@H](OCc2ccccc2)CN1Cc1ccc2ccccc2c1 | 

Compound | Ki ([2]; read-out: Ki) | Ki ([1]; read-out: Ki) | Ki [2] | Ki [1]
NCCCCCOC[C@@H]1[C@@H](O)[C@H](O)[C@@H](O)CN1CCc1c[nH]c2ccccc12 | 3.2 µM |  |  | Not Active
